From patent EP0354522A1, “Use of alpha-aminoboronic acid derivatives in prevention and treatement of viral diseases” (HOECHST AKTIENGESELLSCHAFT, priority 1988, dated 1990) come the findings set out here.

pIC50: −log10 of the molar value.

In this test the target is T1, HIV-Protease (Human immunodeficiency virus type 1 group M subtype B, UniProt P04585).
T1 construct: Max-Planck-Institut für Molekulare Genetik, Berlin
Put plainly: HIV protease test (cleavage of heptapeptide Ser-Phe-Asn-Phe-Pro-Gln-Ile, HPLC quantification of Ser-Phe-Asn-Phe). Format: biochemical. Conditions: 2 h, 37°C; for activity at 100 µM / Restakt. bei 10^-4 M: residual enzyme activity at 10^-4 M inhibitor, 100 % = mean of runs without inhibitor, pH ca. 6,0, 1 % DMSO; for activity at 100 µM: read-out: Restakt. bei 10^-4 M; for pIC50: cloned HIV protease, pH ca. 6,0; for Restakt. bei 10^-4 M: 100 µM. From the text:
Als synthetisches Substrat ist ein Heptapeptid der Sequenz Ser-Phe-Asn-Phe-Pro-Gln-Ile geeignet. Diese Sequenz tritt im natürlichen Substrat der Protease auf und liefert bei der autokatalytischen Freisetzung nach einer Phe-Pro-Spaltung den N-terminalen Beginn der Proteasesequenz (Pro-Gln-Ile...).
Es wird eine klonierte HIV-Protease (Max-Planck-Institut für Molekulare Genetik, Berlin) benutzt. [drawing 5]
Von den Reaktionsprodukten wird Ser-Phe-Asn-Phe zur Abtrennung und quantitativen Bestimmung mittels HPLC herangezogen.
Nach 2 Stunden bei 37°C werden die Ansätze mit 225 µl HPLC-Elutionsmittel (s.u.) gestoppt. Etwa 150 µl des zentrifugierten Überstands (Eppendorf-Zentrifuge) werden in Mikrovials gefüllt. Das Injektionsvolumen für die HPLC-Trennung beträgt 20 µl. Ser-Phe-Asn-Phe wird durch Vergleich mit einem externen Standard bekannter Konzentration (0,5 µg/ 20 µl) quantitativ bestimmt und stellt die Meßgröße der Enzymaktivität (µg Tetrapeptid pro 20 µl Meßprobe) dar. Bezugswert (= 100 % Enzymaktivität) ist der Mittelwert aus 2 oder mehr Ansätzen ohne Inhibitor. Als Standard-Inhibitor wird Pepstatin A (10⁻⁴ oder 10⁻⁵ M) verwendet.
• a) Substratlösung: 2 mg Ser-Phe-Asn-Phe-Pro-Gln-Ile werden in 1 ml MGTE 15-Puffer gelöst. • b) Testsubstanzen: Diese werden 10⁻² oder 10⁻³ M in Dimethylsulfoxid (DMSO) gelöst und 1 : 40 mit MGTE 15-Puffer verdünnt; 10 µl dieser Lösung werden pro Ansatz verwendet; die Endkonzentration des Präparates beträgt 10⁻⁴ bzw. 10⁻⁵ M; die DMSO-Konzentration in allen Testansätzen ist 1 %. Für IC₅₀-Bestimmungen wird das Präparat, ausgehend von 10⁻² M, mit 100 % DMSO in der geeigneten Weise verdünnt. • c) Proteaselösung: Das Enzym wird mit MGTE 25-Puffer auf eine geeignete Konzentration verdünnt. • d) MGTE 15/25-Puffer 20 mM Morpholinoethansulfonsäure (MES) 15 (25) % (w/v) Glyzerin 0,1 % (v/v) Triton® X 100 (vgl. Merck Index 10, 6601) 5 mM EDTA 0,5 M NaCl 1 mM Dithiothreit (nur für MGTE 25) 1 mM Phenylmethylsulfonylfluorid (PMSF) Der pH-Wert soll ca. 6,0 betragen. • e) HPLC-Elutionsmittel: Eine 0,1 M Phosphorsäure-Lösung wird mit Triethylamin auf pH 2,5 eingestellt. Aus dieser Lösung wird ein Phosphorsäure-Acetonitril-Gemisch mit 22,6 Gewichts-Prozent Acetonitril hergestellt.
Säule: Radial Pak LC Cartridge, 8 mm/C18, 5 µ (der Fa. Waters, USA). Fluß: 1 ml/min Detektoreinstellung: 215 nm, 0,08 AU Zeit pro Analyse: 12 min; Retentionszeiten: Heptapeptid ca. 9,5 min, Tetrapeptid ca. 5,2 min Laufmittel: 77,4 Gew.-% 0,1 M H₃PO₄/pH 2,5 22,6 Gew.-% Acetonitril

On to `CCC[C@H](NC(=O)C(Cc1cccs1)CS(=O)(=O)C(C)(C)C)C(=O)NC(CC1CCCCCC1)B1OC(C)(C)C(C)(C)O1` (some centres unmarked) [Beispiel 40, [3-t-Butylsulfonyl,2-(2-thienylmethyl)]propionyl-Nva-[Cycloheptylmethyl,(4,4,5,5-tetramethyl-1,3,2-dioxaborolan-2-yl)]methylamid], for which the activity at 100 µM was found to be 46%. With `CC(C)CC(NC(=O)[C@H](Cc1c[nH]cn1)NC(=O)C(Cc1cccc2ccccc12)Cc1cccc2ccccc12)B1OC(C)(C)C(C)(C)O1` (stereo partly drawn) [Beispiel 19, Bis-(1-Naphthylmethyl)acetyl-His-[3-methyl,l-(4,4,5,5-tetramethyl-1,3,2-dioxaborolan-2-yl)]butylamid], the activity at 100 µM was found to be 37%.

The pIC50 is −log10 of the IC50, conventionally taken in molar units. Read a low pIC50 as a large IC50. With “(2-Benzyl,3-t-butylsulfonyl)propionyl-Nva-(Cyclopentylmethyl,dihydroxyboryl)methylamid [Beispiel 32]”, the pIC50 was 4.40 and the “Restakt. bei 10^-4 M” value is listed as 25%. On to `CC(C)CC(=O)N[C@@H](Cc1ccccc1)C(=O)N(C)[C@@H](Cc1ccccc1)C(=O)NC(CC1CCCCC1)B1OC(C)(C)C(C)(C)O1` (some centres unmarked) [Beispiel 16], for which the activity at 100 µM was found to be 70%. Same read-out and setting: the value for `CCC[C@H](NC(=O)[C@H](Cc1ccccc1)NC(=O)CC(C)C)C(=O)NC(CC1CCCCCC1)B1OC(C)(C)C(C)(C)O1` (stereo partly drawn) [Beispiel 15, Iva-Phe-Nva- (Cycloheptylmethyl,(4,4,5,5-tetramethyl-1,3 2-dioxaborolan-2-yl)]methylamid] was 86%; that for `CC(C)CC(=O)N[C@@H](Cc1ccccc1)C(=O)N[C@@H](Cc1c[nH]cn1)C(=O)NC(CC1CCCCC1)B1OC(C)(C)C(C)(C)O1` (stereo partly drawn) [Beispiel 3, Iva-Phe-His-[Cyclohexylmethyl,(4,4,5,5-tetramethyl-1,3,2-dioxaborolan-2-yl)]methylamid] was 61%. On to `CC1(C)OB(C(CC2CCCCC2)NC(=O)[C@H](CC(N)=O)NC(=O)C(Cc2cccs2)CS(=O)(=O)C(C)(C)C)OC1(C)C` (some centres unmarked) [Beispiel 52, [3-t-Butylsulfonyl, 2-(2-thienylmethyl)]propionyl-Asn-[cyclohexylmethyl,(4,4,5,5-tetramethyl-1,3,2-dioxaborolan-2-yl)]-methylamid], for which the pIC50 is 4.00 and the activity at 100 µM stood at 49%. `CC(C)CC(=O)N[C@@H](Cc1ccccc1)C(=O)N[C@@H](Cc1c[nH]cn1)C(=O)NC(CC1CCCCCC1)B1OC(C)(C)C(C)(C)O1` (stereo partly drawn) [Beispiel 18, Iva-Phe-His-[Cycloheptylmethyl,(4,4,5,5-tetramethyl-1,3,2-dioxaborolan-2-yl)]methylamid]: the activity at 100 µM was 36%.

As for “(2-Benzyl,3-t-butylsulfonyl)propionyl-Val-(Cyclohexylmethyl,dihydroxyboryl)methylamid [Beispiel 28]”, the negative-log IC50 (pIC50) is 5.15 and the “Restakt. bei 10^-4 M” value is given as 7%.

For `CCC[C@H](NC(=O)[C@H](Cc1ccccc1)NC(=O)CC(C)C)C(=O)NC(CC1CCCCCCC1)B1OC(C)(C)C(C)(C)O1` (some centres unmarked) [Beispiel 11], the activity at 100 µM worked out at 96%. As to `CC(C)[C@H](NC(=O)C(Cc1ccccc1)CS(=O)(=O)C(C)(C)C)C(=O)NC(CC1CCCCC1)B1OC(C)(C)C(C)(C)O1` (some centres unmarked) [Beispiel 38, (2-Benzyl,3-t-butylsulfonyl)propionyl-Val-[Cyclohexylmethyl,(4,4,5,5-tetramethyl-1,3,2-dioxaborolan-2-yl)]methylamid], the pIC50 was 5.05 and the activity at 100 µM came to 11%. Consider “Iva-Phe-Nva-[Cycloundecylmethyl, (4,4,5,5-tetramethyl-1,3,2-dioxaborolan-2-yl)]methylamid [Beispiel 13]”, for which the “Restakt. bei 10^-4 M” value was 35%. Still for that read-out and setting: the value for “[3-t-Butylsulfonyl,2-(2-thienylmethyl)]propionyl-Thi-(Cycloheptylmethyl,dihydroxyboryl)methylamid [Beispiel 33]” was 61%.
